Measured values published in BindingDB's records for doi:10.1016/j.bioorg.2016.07.002 (Universiti Teknologi Mara, 2016).

What follows are compounds tested against T1, Beta-glucuronidase (Bos taurus, UniProt A3KMY8) (assay: β-Glucuronidase assay).
T1 sequence (A3KMY8 whole entry): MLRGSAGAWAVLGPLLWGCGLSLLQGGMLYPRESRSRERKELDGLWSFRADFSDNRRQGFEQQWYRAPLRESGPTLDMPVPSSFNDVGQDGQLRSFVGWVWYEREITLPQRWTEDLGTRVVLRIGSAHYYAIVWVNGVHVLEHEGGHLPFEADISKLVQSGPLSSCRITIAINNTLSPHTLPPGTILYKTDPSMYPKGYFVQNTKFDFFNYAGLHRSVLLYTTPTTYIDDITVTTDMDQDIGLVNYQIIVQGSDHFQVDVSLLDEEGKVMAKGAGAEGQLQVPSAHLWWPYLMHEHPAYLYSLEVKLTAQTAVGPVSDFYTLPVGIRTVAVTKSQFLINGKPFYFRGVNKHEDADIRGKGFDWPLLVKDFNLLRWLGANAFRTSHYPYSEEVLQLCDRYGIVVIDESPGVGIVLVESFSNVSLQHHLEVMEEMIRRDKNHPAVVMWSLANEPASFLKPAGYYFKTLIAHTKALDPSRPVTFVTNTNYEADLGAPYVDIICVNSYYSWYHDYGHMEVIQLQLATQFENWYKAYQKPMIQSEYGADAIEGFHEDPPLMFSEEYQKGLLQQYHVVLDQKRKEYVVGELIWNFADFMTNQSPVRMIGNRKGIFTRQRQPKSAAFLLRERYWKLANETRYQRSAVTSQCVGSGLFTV
Method: […] was the volume of total reaction. Reaction mixture containing 5 µL of test compound solution, 185 µL of 0.1 M acetate buffer and 10 µL of enzyme solution wereincubated for 30 min at 37 °C. […] Experiments were performed for triplicate. To avoid precipitation compound concentration were decreased and the volume of reactionwas high (200 µL).

Point of comparison: O=S(=O)(Nc1ccccc1SSc1ccccc1NS(=O)(=O)c1ccc(F)cc1)c1ccc(F)cc1 [N,N'-(disulfanediylbis(2,1-phenylene))bis(4-fluorobenzenesulfonamide) (6)], IC50 13.2 µM. Against it:
- O=S(=O)(Nc1ccccc1SSc1ccccc1NS(=O)(=O)c1ccc(Cl)cc1Cl)c1ccc(Cl)cc1Cl [N,N'-(disulfanediylbis(2,1-phenylene))bis(2,4-dichlorobenzenesulfonamide) (17)] — within 1.5-fold, 11.3 µM
- O=S(=O)(Nc1ccccc1SSc1ccccc1NS(=O)(=O)c1cc(Cl)ccc1Cl)c1cc(Cl)ccc1Cl [N,N'-(disulfanediylbis(2,1-phenylene))bis(2,5-dichlorobenzenesulfonamide) (18)] — within 1.5-fold, 16.2 µM
- O=S(=O)(Nc1ccccc1SSc1ccccc1NS(=O)(=O)c1ccccc1Br)c1ccccc1Br [N,N'-(disulfanediylbis(2,1-phenylene))bis(2-bromobenzenesulfonamide) (7)] — 4.4-fold higher, 58.5 µM
- O=S(=O)(Nc1ccccc1SSc1ccccc1NS(=O)(=O)c1ccccc1Cl)c1ccccc1Cl [N,N'-(disulfanediylbis(2,1-phenylene))bis(2-chlorobenzenesulfonamide) (1)] — 1.6-fold lower, 8.18 µM
- O=S(=O)(Nc1ccccc1SSc1ccccc1NS(=O)(=O)c1ccccc1F)c1ccccc1F [N,N'-(disulfanediylbis(2,1-phenylene))bis(2-fluorobenzenesulfonamide) (4)] — 2.1-fold lower, 6.23 µM
- Cc1ccccc1S(=O)(=O)Nc1ccccc1SSc1ccccc1NS(=O)(=O)c1ccccc1C [N,N'-(disulfanediylbis(2,1-phenylene))bis(2-methylbenzenesulfonamide) (14)] — 2.6-fold higher, 34.3 µM
- O=[N+]([O-])c1ccccc1S(=O)(=O)Nc1ccccc1SSc1ccccc1NS(=O)(=O)c1ccccc1[N+](=O)[O-] [N,N'-(disulfanediylbis(2,1-phenylene))bis(2-nitrobenzenesulfonamide) (10)] — within 1.5-fold, 14.2 µM
- O=S(=O)(Nc1ccccc1SSc1ccccc1NS(=O)(=O)c1cccc(Br)c1)c1cccc(Br)c1 [N,N'-(disulfanediylbis(2,1-phenylene))bis(3-bromobenzenesulfonamide) (9)] — 6.7-fold higher, 88.2 µM
- O=S(=O)(Nc1ccccc1SSc1ccccc1NS(=O)(=O)c1cccc(Cl)c1)c1cccc(Cl)c1 [N,N'-(disulfanediylbis(2,1-phenylene))bis(3-chlorobenzenesulfonamide) (2)] — 1.9-fold higher, 25 µM
- O=S(=O)(Nc1ccccc1SSc1ccccc1NS(=O)(=O)c1cccc(F)c1)c1cccc(F)c1 [N,N'-(disulfanediylbis(2,1-phenylene))bis(3-fluorobenzenesulfonamide) (5)] — 2.6-fold higher, 34.5 µM
- O=[N+]([O-])c1cccc(S(=O)(=O)Nc2ccccc2SSc2ccccc2NS(=O)(=O)c2cccc([N+](=O)[O-])c2)c1 [N,N'-(disulfanediylbis(2,1-phenylene))bis(3-nitrobenzenesulfonamide) (12)] — 4.5-fold higher, 59.3 µM
- COc1ccc(S(=O)(=O)Nc2ccccc2SSc2ccccc2NS(=O)(=O)c2ccc(OC)cc2)cc1 [N,N'-(disulfanediylbis(2,1-phenylene))bis(4-methoxybenzenesulfonamide) (20)] — 4.3-fold higher, 56.3 µM
- O=[N+]([O-])c1ccc(S(=O)(=O)Nc2ccccc2SSc2ccccc2NS(=O)(=O)c2ccc([N+](=O)[O-])cc2)cc1 [N,N'-(disulfanediylbis(2,1-phenylene))bis(4-nitrobenzenesulfonamide) (11)] — 2.2-fold higher, 28.4 µM
